Results on two molecules are retold here after PMC6271079, “Amino Acid Derivatives of Ligustrazine-Oleanolic Acid as New Cytotoxic Agents” (Molecules, 2014).

What is called IC50 is the point on the concentration scale where inhibition reaches its midpoint. Read a high IC50 as lower potency. The logP is a log measure of how a compound divides between an organic and an aqueous phase.

Bounds are passed on as bounds.

The test system of data set [1] is MDCK cells. The data set is described as follows: MTT toxicity (nephrotoxicity) evaluation, MDCK. The class given is cell-based. As to conditions: Canis lupus familiaris, MDCK, 72 h, Madin-Darby canine kidney cells. Here is the method:
(§1) The cytotoxicity of these compounds was tested on five cells lines by the standard MTT assay. The human cancer cells lines (HepG2, HT-29, Hela, BGC-823) and MDCK cells were provided by the Chinese Academy of Medical Sciences Peking Union Medical College. The tumor cells were cultured in RPMI 1640 medium supplemented with 10% (v/v) fetal bovine serum and 1% (v/v) penicillin-streptomycin (Thermo Technologies, New York, NY, USA) at 37 °C in a humidified atmosphere with 5% CO2. The growing tumor cells at a density 3 × 10^3 cells/mL were exposed to various concentrations of the tested drugs and incubated in a 96-well microtiter plate for 72 h (37 °C, 5% CO2). After MTT solution (20 μL, 5 mg/mL) was added to each well, the plate was incubated for a further 4 h. Then the media was removed. Formazan crystals were dissolved with DMSO (150 μL). After mixing well, the absorbance was quantified at 490 nm with a BIORAD 550 spectrophotometer (Bio-rad Life Science Development Ltd., Beijing, China). Wells containing no drugs were used to be blanks. The IC50 values were defined as the concentration of compounds that produced a 50% reduction of surviving cells and calculated using the Logit-method. Tumor cell growth inhibitory rate was calculated in the following Equation (1): % inhibition = (1 − Sample group OD/Control group OD) × 100%(1)

For data set [2], the system named is HepG2. The data set is described as follows: MTT cytotoxicity assay, HepG2. As to conditions: HepG2, 72 h, human hepatoma cells. The class given is cell-based. Here is the method: as §1
On the technique in general: Tetrazolium dyes change colour on reduction, which living cells bring about.

The test system of data set [3] is HepG2 cells. Description: DAPI staining, HepG2 nuclear changes. As to conditions: 1, 2 and 4 μM, 72 h, 400×. It counts as cell-based, human. As for the experimental part:
HepG2 cells in logarithmic growth phase were allowed to grow in 6-well plates for 24 h at 37 °C in a humidified atmosphere with 5% CO2. And each group was treated with different concentrations of compound 6a for 72 h. Cell culture medium was discarded and the cells were washed twice with PBS. The cells were fixed with 4% paraformaldehyde (pH 7.4) for 15 min and then washed twice with PBS. With an excitation wavelength of 470 nm, 4',6-diamidino-2-phenylindole (DAPI, 600 nM, Molecular Probes/Invitrogen Life Technologies, Carlsbad, CA, USA) staining was then performed for 2 min and nuclear fragments were observed using inverted phase-contrast microscope at a magnification of 400×.

The subject of data set [4] is Hela. The data set is described as follows: MTT cytotoxicity assay, Hela. It counts as cell-based, human. As to conditions: Homo sapiens, 72 h, cervical cancer cells. Here is the method: as §1
Data set [5] in a line: logP by shake flask-ultraviolet spectrophotometry. It counts as physicochemical. Particulars: n-caprylic alcohol-water (octanol/water); pH 6.8, n-caprylic alcohol-water, shake flask-UV; read-out: logP (octanol-water partition coefficient). The text has this:
Lipophilicity (ClogP) is used in rational drug design as a key factor related to the cell transmembrane transport or other biological processes. ClogP values can either be calculated experimentally or predicted by means of commercially available programs. In this work, ClogP values of the TOA-amino acid derivatives were predicted using Sybyl-X 2.0 (Tripos, Certara Inc., St. Louis, MO, USA). […] To determine the octanol-water partition coefficient (logP), a shake flask-ultraviolet spectrophotometry method was used to determine the concentration of 6a and TOA in the water phase and organic phase at pH 6.8 with n-caprylic alcohol-water as the simulation system. […] However, the better activity connected with the increases of these amino acid conjugates’ solubility is worthy of further study.

Data set [6] relates to BGC-823. The data set is described as follows: MTT cytotoxicity assay, BGC-823. The class given is cell-based. Particulars: BGC-823, 72 h, human gastric cancer cells. As for the experimental part: as §1
Data set [7] has as its system HepG2 cells. The data set is described as follows: Giemsa staining, HepG2 morphology. It counts as cell-based, human. Particulars: 1, 2 and 4 μM, 72 h, 400×. Here is the method:
(§2) HepG2 cells in logarithmic growth phase were cultured in 6-well plates for 24 h at 37 °C in a humidified atmosphere with 5% CO2. And then each group was treated with different concentrations of compound 6a for 72 h. The cell culture medium was discarded. And the cells were washed twice with PBS, kept in PBS/ethanol (1:1) for 2 min, fixated in ethanol for 10 min. After removing the ethanol, the cells were stained with Giemsa stain for 2 min and observed under inverted phase-contrast microscope at a magnification of 400×. MDCK cells in logarithmic growth phase were cultured in 6-well plates for 24 h at 37 °C in a humidified atmosphere with 5% CO2. The cells were treated with 2 μM of compound 6a and CDDP for 72 h. The same operation was experimented as described above, and the cells were observed under inverted phase-contrast microscope at a magnification of 200×.

In data set [8] the test system is MDCK cells. The data set is described as follows: Giemsa staining, MDCK morphology. The class given is cell-based, canine. Particulars: 2 μM, 72 h, 200×. Here is the method:
as §2

The test system of data set [9] is HT-29. The data set is described as follows: MTT cytotoxicity assay, HT-29. It counts as cell-based. As to conditions: HT-29, 72 h, human colorectal cancer cells. As for the experimental part: as §1
In data set [10] the test system is NF-κB/p65 and COX-2. On the set-up: method as in PMID 24147349. As to conditions: S180 mice; cited from earlier work.
Data set [11] deals with mice. As to conditions: via gavage in mice; earlier studies, no reference given; cited from earlier work.

As for `Cc1nc(C)c(COC(=O)[C@]23CCC(C)(C)CC2C2=CCC4[C@@]5(C)CC[C@H](OC(=O)CN)C(C)(C)C5CC[C@@]4(C)[C@]2(C)CC3)nc1C` (stereo partly drawn) [Compound 6a, 3β-Glycine ester olean-12-en-28-oic acid-3,5,6-trimethylpyrazin-2-methyl ester], the half-maximal inhibitory concentration (IC50) in [1] was found to be 4.88 µM; in data set [2], 2 µM; in [4] it was 3.26 µM; in [6], 3.06 µM; in [9] it was 2.5 µM. Moreover, the “Nuclear changes of HepG2 cells (DAPI staining)” value in data set [3] was “condensed chromatin, nuclear fragmentation and weak fluorescence”. The logP in [5] was determined as 4.3. Moreover, the “Morphological changes of HepG2 cells (Giemsa staining)” value in [7] was “loss of intercellular contacts, lysis of nuclei, increased cell debris and membrane damage”. Besides, the “Morphological changes of MDCK cells (Giemsa staining)” value in data set [8] is reported as “no significant morphological changes”.

In the case of `Cc1nc(C)c(COC(=O)[C@]23CCC(C)(C)CC2C2=CCC4[C@@]5(C)CC[C@H](O)C(C)(C)C5CC[C@@]4(C)[C@]2(C)CC3)nc1C` (stereo partly drawn) [TOA, 3β-Hydroxyolea-12-en-28-oic acid-3,5,6-trimethylpyrazine-2-methyl Ester], the IC50 in data set [1] was over 25 µM; in data set [2], 21.4 µM; in data set [4], 8.68 µM; in data set [6] it was over 25 µM; in data set [9], over 25 µM. Besides, the “Expression of NF-κB/p65 and COX-2” value in data set [10] was “prevented the expression”. For the same molecule, the LD50 entry in data set [11] is given as “exceeded 6.0 g/kg”. Also, the log partition coefficient (logP) in [5] was 6.11.
